# Organism: Rattus norvegicus
# Test: Open TG-GATES - Regimen: Daily Repeat
# Type: toxicity, organism-based, Sprague-Dawley
# Set-up: regimen Daily Repeat, gender Male, age 6 weeks
# Settings: in vivo, po, route gavage; for ALP / ALT / AST / BUN / CRE / DBIL / GLC / IP / K / LDH / Na / RALB / TBIL / TC / TG / TP / gamma-GTP: tissue Plasma; for Bas / Eos / Fbg / Lym / MCH / MCHC / MCV / Mono / Neu / PT / Plat / RBC / Ret / WBC: tissue Blood; for KIDNEY_L / KIDNEY_R / KIDNEY_TOTAL: tissue Kidney
# [1] = 3 mg/kg, […], dose level Low, time 28 day
# [2] = 10 mg/kg, 72 h, dose level Middle, time 3 day
# [3] = 10 mg/kg, […], dose level Middle, time 7 day
# [4] = 10 mg/kg, […], dose level Middle, time 14 day
# [5] = 10 mg/kg, […], dose level Middle, time 28 day
# [6] = 30 mg/kg, 72 h, dose level High, time 3 day
# [7] = 30 mg/kg, […], dose level High, time 7 day
# [8] = 30 mg/kg, […], dose level High, time 14 day
structure (smiles),measurement,setting,value
Cc1cnc(NC(=O)C2=C(O)c3ccccc3S(=O)(=O)N2C)s1 [MELOXICAM],ALP,[1],620 IU/L
same,ALT,[1],33.6 IU/L
same,AST,[1],64.4 IU/L
same,BUN,[1],18.2 mg/dL
same,CRE,[1],0.5 mg/dL
same,DBIL,[1],0.1 mg/dL
same,GLC,[1],235.2 mg/dL
same,IP,[1],7.2 mg/dL
same,K,[1],3.9 meq/L
same,LDH,[1],170.8 IU/L
same,Na,[1],142 meq/L
same,RALB,[1],3.5 g/dL
same,TBIL,[1],0.2 mg/dL
same,TC,[1],71.2 mg/dL
same,TG,[1],121.6 mg/dL
same,TP,[1],5.9 g/dL
same,gamma-GTP,[1],1.2 IU/L
same,TERMINAL_BW,[2],246.9 g
same,Bas,[2],0.8%
same,Eos,[2],0.6%
same,Fbg,[2],248.8 mg/dL
same,Lym,[2],71.4%
same,MCH,[2],21.7 pg
same,MCHC,[2],34.1%
same,MCV,[2],63.6 fL
same,Mono,[2],3.4%
same,Neu,[2],23.4%
same,PT,[2],11.7 s
same,Plat,[2],127 x10_4/uL
same,RBC,[2],635.2 x10_4/ul
same,Ret,[2],6%
same,WBC,[2],135.2 x10_2/uL
same,KIDNEY_L,[2],1.1 g
same,KIDNEY_R,[2],1.1 g
same,KIDNEY_TOTAL,[2],2.3 g
same,ALP,[2],919 IU/L
same,ALT,[2],43.2 IU/L
same,AST,[2],75.4 IU/L
same,CRE,[2],0.4 mg/dL
same,DBIL,[2],0.1 mg/dL
same,IP,[2],7.5 mg/dL
same,K,[2],4.1 meq/L
same,LDH,[2],242.6 IU/L
same,Na,[2],142.2 meq/L
same,RALB,[2],3.5 g/dL
same,TBIL,[2],0.2 mg/dL
same,TC,[2],79 mg/dL
same,TG,[2],129.2 mg/dL
same,TP,[2],5.7 g/dL
same,gamma-GTP,[2],1 IU/L
same,TERMINAL_BW,[3],277.9 g
same,TERMINAL_BW,[4],321.8 g
same,TERMINAL_BW,[5],398.2 g
same,Bas,[3],0.6%
same,Eos,[3],1%
same,Fbg,[3],223.8 mg/dL
same,Lym,[3],73.8%
same,MCH,[3],21.5 pg
same,MCHC,[3],34.5%
same,MCV,[3],62.2 fL
same,Mono,[3],2.8%
same,Neu,[3],21.8%
same,PT,[3],11.9 s
same,RBC,[3],633 x10_4/ul
same,Ret,[3],5.4%
same,WBC,[3],119.8 x10_2/uL
same,Bas,[4],1%
same,Eos,[4],0.8%
same,Fbg,[4],234.2 mg/dL
same,Lym,[4],74.2%
same,MCH,[4],20.3 pg
same,MCHC,[4],33.7%
same,MCV,[4],60 fL
same,Mono,[4],3%
same,Neu,[4],21.2%
same,PT,[4],11.6 s
same,Plat,[4],116.5 x10_4/uL
same,RBC,[4],699.4 x10_4/ul
same,Ret,[4],4.5%
same,WBC,[4],135.2 x10_2/uL
same,Bas,[5],1%
same,Eos,[5],1%
same,Fbg,[5],242.8 mg/dL
same,Lym,[5],73%
same,MCH,[5],19.4 pg
same,MCHC,[5],33.9%
same,MCV,[5],57.2 fL
same,Mono,[5],3.2%
same,Neu,[5],21.4%
same,PT,[5],11.5 s
same,Plat,[5],118.5 x10_4/uL
same,RBC,[5],740.6 x10_4/ul
same,Ret,[5],3.4%
same,WBC,[5],170.5 x10_2/uL
same,KIDNEY_L,[3],1.2 g
same,KIDNEY_R,[3],1.2 g
same,KIDNEY_TOTAL,[3],2.4 g
same,KIDNEY_L,[4],1.4 g
same,KIDNEY_R,[4],1.4 g
same,KIDNEY_TOTAL,[4],2.7 g
same,KIDNEY_L,[5],1.5 g
same,KIDNEY_R,[5],1.5 g
same,KIDNEY_TOTAL,[5],3 g
same,ALP,[3],952.8 IU/L
same,ALT,[3],34.2 IU/L
same,AST,[3],72.6 IU/L
same,CRE,[3],0.5 mg/dL
same,DBIL,[3],0.094 mg/dL
same,IP,[3],7.5 mg/dL
same,K,[3],4.2 meq/L
same,LDH,[3],197.8 IU/L
same,Na,[3],141.4 meq/L
same,RALB,[3],3.4 g/dL
same,TBIL,[3],0.2 mg/dL
same,TC,[3],68.4 mg/dL
same,TG,[3],96.4 mg/dL
same,TP,[3],5.6 g/dL
same,gamma-GTP,[3],3.4 IU/L
same,ALP,[4],873.6 IU/L
same,ALT,[4],38.6 IU/L
same,AST,[4],72.8 IU/L
same,BUN,[4],17.8 mg/dL
same,CRE,[4],0.4 mg/dL
same,DBIL,[4],0.1 mg/dL
same,IP,[4],7.2 mg/dL
same,K,[4],4 meq/L
same,LDH,[4],185.4 IU/L
same,Na,[4],142.6 meq/L
same,RALB,[4],3.5 g/dL
same,TBIL,[4],0.2 mg/dL
same,TC,[4],67.2 mg/dL
same,TG,[4],128.6 mg/dL
same,TP,[4],5.9 g/dL
same,gamma-GTP,[4],1 IU/L
same,ALP,[5],643.2 IU/L
same,ALT,[5],33.2 IU/L
same,AST,[5],66 IU/L
same,BUN,[5],17 mg/dL
same,CRE,[5],0.5 mg/dL
same,DBIL,[5],0.096 mg/dL
same,GLC,[5],244 mg/dL
same,IP,[5],7.3 mg/dL
same,K,[5],3.9 meq/L
same,LDH,[5],176.8 IU/L
same,Na,[5],141.8 meq/L
same,RALB,[5],3.2 g/dL
same,TBIL,[5],0.2 mg/dL
same,TC,[5],65.2 mg/dL
same,TG,[5],121.4 mg/dL
same,TP,[5],5.7 g/dL
same,gamma-GTP,[5],0.8 IU/L
same,TERMINAL_BW,[6],230.2 g
same,Bas,[6],0.6%
same,Eos,[6],0.4%
same,Fbg,[6],378.4 mg/dL
same,Lym,[6],66.6%
same,MCH,[6],21.2 pg
same,MCHC,[6],34.1%
same,MCV,[6],61.9 fL
same,Mono,[6],4.4%
same,Neu,[6],25.6%
same,PT,[6],11.6 s
same,RBC,[6],512.4 x10_4/ul
same,Ret,[6],7.1%
same,WBC,[6],150.3 x10_2/uL
same,KIDNEY_L,[6],1.2 g
same,KIDNEY_R,[6],1.2 g
same,KIDNEY_TOTAL,[6],2.5 g
same,ALP,[6],536 IU/L
same,ALT,[6],26 IU/L
same,AST,[6],52.4 IU/L
same,BUN,[6],17 mg/dL
same,CRE,[6],0.4 mg/dL
same,DBIL,[6],0.072 mg/dL
same,IP,[6],8.2 mg/dL
same,K,[6],4.1 meq/L
same,LDH,[6],165.8 IU/L
same,Na,[6],140.8 meq/L
same,RALB,[6],2.4 g/dL
same,TBIL,[6],0.1 mg/dL
same,TC,[6],71.6 mg/dL
same,TG,[6],110.4 mg/dL
same,TP,[6],4.9 g/dL
same,gamma-GTP,[6],1.2 IU/L
same,TERMINAL_BW,[7],231.5 g
same,TERMINAL_BW,[8],312.2 g
same,Bas,[7],0.6%
same,Eos,[7],0.6%
same,Fbg,[7],379.2 mg/dL
same,Lym,[7],55.6%
same,MCH,[7],20.6 pg
same,MCHC,[7],32.5%
same,MCV,[7],63.4 fL
same,Mono,[7],4.8%
same,Neu,[7],36.6%
same,PT,[7],12 s
same,Plat,[7],251.1 x10_4/uL
same,RBC,[7],387 x10_4/ul
same,Ret,[7],17.2%
same,WBC,[7],145.2 x10_2/uL
same,Bas,[8],1%
same,Eos,[8],0%
same,Fbg,[8],283.5 mg/dL
same,Lym,[8],62%
same,MCH,[8],20.8 pg
same,MCHC,[8],33%
same,MCV,[8],63 fL
same,Mono,[8],4%
same,Neu,[8],32%
same,PT,[8],11.5 s
same,Plat,[8],174 x10_4/uL
same,RBC,[8],636.5 x10_4/ul
same,Ret,[8],8.5%
same,WBC,[8],190.7 x10_2/uL
same,KIDNEY_L,[7],1.1 g
same,KIDNEY_R,[7],1.1 g
same,KIDNEY_TOTAL,[7],2.2 g
same,KIDNEY_L,[8],1.5 g
same,KIDNEY_R,[8],1.5 g
same,KIDNEY_TOTAL,[8],3 g
same,ALP,[7],1681.8 IU/L
same,ALT,[7],18 IU/L
same,AST,[7],74 IU/L
same,BUN,[7],53.4 mg/dL
same,CRE,[7],0.5 mg/dL
same,DBIL,[7],0.1 mg/dL
same,GLC,[7],153 mg/dL
same,IP,[7],9.7 mg/dL
same,K,[7],5.8 meq/L
same,LDH,[7],221.2 IU/L
same,Na,[7],136 meq/L
same,RALB,[7],2.1 g/dL
same,TBIL,[7],0.2 mg/dL
same,TC,[7],66 mg/dL
same,TG,[7],111.4 mg/dL
same,TP,[7],5.1 g/dL
same,gamma-GTP,[7],7.4 IU/L
same,ALP,[8],580.5 IU/L
same,ALT,[8],32.5 IU/L
same,AST,[8],67 IU/L
same,BUN,[8],16 mg/dL
same,CRE,[8],0.4 mg/dL
same,DBIL,[8],0.095 mg/dL
same,IP,[8],7.5 mg/dL
same,K,[8],4.2 meq/L
same,LDH,[8],145.5 IU/L
same,Na,[8],142 meq/L
same,RALB,[8],3 g/dL
same,TBIL,[8],0.2 mg/dL
same,TC,[8],70 mg/dL
same,TG,[8],139.5 mg/dL
same,TP,[8],5.5 g/dL
same,gamma-GTP,[8],1 IU/L

# Reference: ChEMBL document CHEMBL3885861, “Open TG-GATES”
